20 compounds from patent publication US5726159A, “Antithrombotic agents” (Eli Lilly and Company, priority 1995, dated 1998) can be followed below.

The structures appear in SMILES notation. Counter-ions that a name gives are not always drawn. Some results are limits rather than exact numbers.

Common to all, as to format: biochemical
For test [1], the system named is Human plasma. The experiment in a line: Human plasma anticoagulation, activated partial thromboplastin time (APTT). Particulars: concentration required to double the clotting time. As to the method: (§1) Dog plasma and rat plasma is obtained from conscious mixed-breed hounds (either sex, Hazelton-LRE, Kalamazoo, Mich., U.S.A.) or from anesthetized male Sprague-Dawley rats (Harlan Sprague-Dawley, Inc., Indianapolis, Ind., U.S.A.) by venipuncture into 3.8 percent citrate. Fibrinogen is prepared from in-date ACD human blood as the fraction I-2 according to previous procedures and specifications. […] Human fibrinogen is also purchased as 98 percent pure/plasmin free from American Diagnostica, Greenwich, Conn. Coagulation reagents ACTIN, Thromboplastin, and Human plasma are from Baxter Healthcare Corp., Dade Division, Miami, Fla. Bovine thrombin from Parke-Davis ([…], Mich.) is used for coagulation assays in plasma.
(§2) Coagulation assay procedures are as previously described. […] A CoAScreener coagulation instrument (American LABor, Inc.) is used for all coagulation assay measurements. The prothrombin time (PT) is measured by adding 0.05 mL saline and 0.05 mL Thromboplastin-C reagent to 0.05 mL test plasma. The activated partial thromboplastin time (APTT) is measured by incubation of 0.05 mL test plasma with 0.05 mL Actin reagent for 120 seconds followed by 0.05 mL CaCl2 (0.02M). The thrombin time (TT) is measured by adding 0.05 mL saline and 0.05 mL thrombin (10 NIH units/mL) to 0.05 mL test plasma. The compounds of Formula I are added to human or animal plasma over a wide range of concentrations to determine prolongation effects on the APTT, PT, and TT assays. Linear extrapolations are performed to estimate the concentrations required to double the clotting time for each assay.

Test [2] relates to Human plasma. The experiment in a line: Human plasma anticoagulation, thrombin time (TT). To be noted: concentration required to double the clotting time. The protocol:
as §1, §2

Test [3] relates to Human plasma. The experiment in a line: Human plasma anticoagulation, prothrombin time (PT). To be noted: concentration required to double the clotting time. As to the method:
as §1, §2

Another test has as its target T1, t-PA (Homo sapiens, UniProt P00750).
T1 construct: purchased American Diagnostica, Greenwich, Conn
Kind of test: Kass for t-PA, chromogenic substrate. The protocol: (§3) By substantially following the procedures described above for human thrombin, and using other human blood coagulation system serine proteases and proteases of the fibrinolytic system with the appropriate chromogenic substrates, identified below, selectivity of the compounds of the present invention with respect to the coagulation factor serine proteases and with respect to the fibrinolytic system serine proteases are evaluated as well as their substantial lack of interference with serine proteases of the fibrinolytic system. […] This would be important to the therapeutic use of such agents as an adjunct to streptokinase, t-PA or urokinase thrombolytic therapy and to the use of such agents as an endogenous fibrinolysis-sparing (with respect to t-PA and urokinase) antithrombotic agent. In addition to the lack of interference with the amidase activity of the fibrinolytic proteases, such fibrinolytic system sparing can be studied by the use of human plasma clots and their lysis by the respective fibrinolytic plasminogen activators.

For the next test, the target named is T2, Bovine trypsin (Bos taurus, UniProt P00760).
T2 construct: Bovine trypsin is purchased from Worthington Biochemicals, Freehold, N.J; purchased Worthington Biochemicals, Freehold, N.J
T2 sequence (P00760 24-246): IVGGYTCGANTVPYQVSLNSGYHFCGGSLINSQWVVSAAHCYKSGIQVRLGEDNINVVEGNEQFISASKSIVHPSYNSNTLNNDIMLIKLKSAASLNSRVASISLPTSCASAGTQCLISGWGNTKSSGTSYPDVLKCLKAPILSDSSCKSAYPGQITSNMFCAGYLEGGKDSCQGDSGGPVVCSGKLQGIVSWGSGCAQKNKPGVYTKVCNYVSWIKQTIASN
The experiment in a line: Kass for trypsin, chromogenic substrate. The protocol:
as §3
Chromogenic substrates: N-Benzoyl-Ile-Glu-Gly-Arg-p-nitroanilide (for factor Xa); N-Cbz-D-Arg-Gly-Arg-p-nitroanilide (for factor IXa assay as the factor Xa substrate); Pyroglutamyl-Pro-Arg-p-nitroanilide (for Factor XIa and for aPC); H-D-Pro-Phe-Arg-p-nitroanilide (for factor XIIa); and Pyroglutamyl-Gly-Arg-p-nitroanilide (for urokinase); are purchased from KabiVitrnm, Stockholm, Sweden, or from Midwest Biotech, Fishers, Ind. Bovine trypsin is purchased from Worthington Biochemicals, Freehold, N.J., and human plasma kallikrein from Kabi Vitrum, Stockholm, Sweden. Chromogenic substrate H-D-Pro-Phe-Arg-p-nitroanilide for plasma kallikrein is purchased from Kabi Vitrum, Stockholm, Sweden. N-Benzoyl-Phe-Val-Arg-p-nitroanilide, the substrate for human thrombin and for trypsin, is synthesized according to procedures described above for the compounds of the present invention, using known methods of peptide coupling from commercially available reactants or purchased from Midwest Biotech, Fishers, Ind.

T1 sequence (P00750 36-562): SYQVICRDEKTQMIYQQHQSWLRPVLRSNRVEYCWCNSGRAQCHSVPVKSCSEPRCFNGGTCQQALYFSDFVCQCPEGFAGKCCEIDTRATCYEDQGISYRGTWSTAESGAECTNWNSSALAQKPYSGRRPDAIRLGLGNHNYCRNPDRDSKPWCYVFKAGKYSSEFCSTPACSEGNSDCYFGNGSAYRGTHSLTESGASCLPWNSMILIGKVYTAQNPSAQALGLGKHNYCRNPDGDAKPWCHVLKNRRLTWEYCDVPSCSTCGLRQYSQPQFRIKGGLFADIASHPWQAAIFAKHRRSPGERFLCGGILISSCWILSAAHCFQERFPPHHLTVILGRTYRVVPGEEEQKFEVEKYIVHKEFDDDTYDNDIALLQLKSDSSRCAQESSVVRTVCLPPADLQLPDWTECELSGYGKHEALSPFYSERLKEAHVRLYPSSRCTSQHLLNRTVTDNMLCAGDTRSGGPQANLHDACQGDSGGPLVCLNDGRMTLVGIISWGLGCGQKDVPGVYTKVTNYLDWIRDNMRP

Regarding `N=C(N)c1cccc(CNC(=O)[C@@H]2CCCN2C(=O)[C@@H]2NCC[C@@H]3CCCC[C@@H]32)c1` [Example 25, D-1-Piq-Pro-m-NHCH2 -C6 H4 C(=NH)NH2.HCl], the “2x Clotting time APTT” value with Human plasma [1] was 34,600 ng/mL. The “2x Clotting time TT” value with Human plasma [2] is given as 1,430 ng/mL. Moreover, the “2x Clotting time PT” value with Human plasma [3] is 40,400 ng/mL. Besides, the “Kass t-PA” value on t-PA was 0.01 × 10^6 (L/mole).
Consider `CCS(=O)(=O)N[C@H](CC1CCCCC1)C(=O)N1CCC[C@H]1C(=O)NCc1ccc(C(=N)N)cc1` [Example 80, EtSO2 -D-Cha-Pro-4-NHCH2 C6 H4 C(NH)NH2.HCl], for which, in the test with Human plasma [1], the “2x Clotting time APTT” value is on record as 40 ng/mL. The “2x Clotting time TT” value in the test with Human plasma [2] is listed as 4 ng/mL. Also, the “2x Clotting time PT” value with Human plasma [3] worked out at 130 ng/mL. For the same compound, the “Kass Trypsin” value on Bovine trypsin was 90. × 10^6 (L/mole).
On the same counts, the results for `N=C(N)c1ccc(CNC(=O)[C@@H]2C[C@@H]3CCCC[C@@H]3N2C(=O)[C@@H](CC2CCCCC2)NCC(=O)O)cc1` (relative stereo) [Example 49, HOOCCH2 -D-Cha-cis-Ohi-p-NHCH2 C6 H4 C(NH)NH2.HCl] are 130 ng/mL, 5 ng/mL, 130 ng/mL and 940. × 10^6 (L/mole).
On the same counts, the results for `N=C(N)c1ccc(CNC(=O)[C@@H]2CCCN2C(=O)[C@@H](CC2CCCCC2)NCC(=O)O)cc1` [Example 48, HOOCCH2 -D-Cha-Pro-p-NHCH2 C6 H4 C(NH)NH2.HCl] are 33 ng/mL, 2. ng/mL, 59 ng/mL and 250. × 10^6 (L/mole).
`CCS(=O)(=O)N[C@H](CC1CCCCC1)C(=O)N1CCC[C@H]1C(=O)NCc1ccnc(N)c1` [Example 83, EtSO2 -D-Cha-Pro-4-NHCH2 -2-aminopyridine.HCl]: the “2x Clotting time APTT” value in the test with Human plasma [1] was 1,000 ng/mL. In addition, the “2x Clotting time TT” value with Human plasma [2] amounted to 91 ng/mL. Besides, the “2x Clotting time PT” value in the test with Human plasma [3] is given as 1,300 ng/mL.
On to `O=C(O)CN[C@H](CC1CCCCC1)C(=O)N1CCC[C@H]1C(=O)NCCCC1CCNCC1` [Example 55, HO2 CCH2 -D-Cha-Pro-4-NHCH2 CH2 CH2 -piperidine.HCl], for which the “2x Clotting time APTT” value with Human plasma [1] is recorded as > 91,000 ng/mL. Besides, the “2x Clotting time TT” value in the test with Human plasma [2] is on record as 55,800 ng/mL. Also, the “2x Clotting time PT” value in the test on Human plasma [3] is > 91,000 ng/mL.
Regarding `CCS(=O)(=O)N[C@H](CC1CCCCC1)C(=O)N1CCC[C@H]1C(=O)NCc1ccc(CN)cc1` [Example 81, EtSO2 -D-Cha-Pro-4-NHCH2 C6 H4 CH2 NH2.HCl], the “2x Clotting time APTT” value with Human plasma [1] was 1,500 ng/mL. In the test on Human plasma [2], the “2x Clotting time TT” value is given as 110 ng/mL. The “2x Clotting time PT” value in the test on Human plasma [3] was 2,700 ng/mL.
As for `N=C(N)NCCCCCNC(=O)[C@@H]1CCCN1C(=O)[C@H](N)Cc1ccccc1` [Example 6, D-Phe-Pro-NH(CH2)5 NHC(NH)NH2.HCl], the “2x Clotting time TT” value in the test with Human plasma [2] amounted to 390 ng/mL. Besides, the “Kass t-PA” value at t-PA is under 0.001.
Turning to `CCS(=O)(=O)N[C@H](Cc1ccccc1)C(=O)N1CCC[C@H]1C(=O)NCc1cccc(NC(=N)N)c1` [Example 36, EtSO2 -D-Phe-Pro-m-NHCH2 C6 H4 NHC(NH)NH2.HCl], the “2x Clotting time APTT” value with Human plasma [1] is > 91,000 ng/mL. In the test on Human plasma [2], the “2x Clotting time TT” value was 7,700 ng/mL. Moreover, the “2x Clotting time PT” value with Human plasma [3] is on record as > 91,000 ng/mL.
In the case of `N=C(N)C1CCC(CNC(=O)[C@@H]2CCCN2C(=O)[C@@H](CC2CCCCC2)NCC(=O)O)NC1` (stereo partly drawn) [Example 67, HO2 CCH2 -D-Cha-Pro-2-NHCH2 -5-amidinopiperidine.HCl], in the test with Human plasma [1], the “2x Clotting time APTT” value is on record as 1,800 ng/mL. In addition, the “2x Clotting time TT” value in the test on Human plasma [2] is on record as 34. ng/mL. Besides, in the test with Human plasma [3], the “2x Clotting time PT” value is 1,300 ng/mL.
In the same order, the values of `N=C(N)c1ccc(CNC(=O)[C@@H]2CCCN2C(=O)[C@H](NCC(=O)O)C2CCCCC2)cc1` [Example 86, HOOCCH2 -D-Chg-Pro-p-NHCH2 C6 H4 C(NH)NH2.HCl] are 81 ng/mL, 4 ng/mL and 180 ng/mL.
With `CCS(=O)(=O)N[C@H](Cc1ccccc1)C(=O)N1CCC[C@H]1C(=O)NCc1ccc(NC(=N)N)cc1` [Example 34, EtSO2 -D-Phe-Pro-p-NHCH2 C6 H4 NHC(NH)NH2.HCl], the “2x Clotting time APTT” value in the test on Human plasma [1] was 4,900 ng/mL. Also, in the test with Human plasma [2], the “2x Clotting time TT” value is on record as 530 ng/mL. Further, the “2x Clotting time PT” value in the test with Human plasma [3] is 5,500 ng/mL. For the same compound, the “Kass t-PA” value at t-PA is reported as 0.01 × 10^6 (L/mole).
Take `CCS(=O)(=O)N[C@H](Cc1ccccc1)C(=O)N1CCC[C@H]1C(=O)NCCCc1ccc(C(=N)N)cc1` [Example 30, EtSO2 -D-Phe-Pro-p-NHCH2 CH2 CH2 -C6 H4 C(=NH)NH2.HCl]: in the test on Human plasma [1], the “2x Clotting time APTT” value is on record as 14,000 ng/mL. For the same compound, in the test with Human plasma [2], the “2x Clotting time TT” value was 1,000 ng/mL. The “2x Clotting time PT” value in the test on Human plasma [3] was 14,400 ng/mL.
In the same order, the values of `N=C(N)c1cccc(CCNC(=O)[C@@H]2CCCN2C(=O)[C@@H]2NCC[C@@H]3CCCC[C@@H]32)c1` [Example 29, 1-Piq-Pro-m-NHCH2 CH2 -C6 H4 C(=NH)NH2.2HCl] are 9,800 ng/mL, 750 ng/mL and 15,800 ng/mL.
In the same order, the values of `N=C(N)c1ccc(CNC(=O)[C@@H]2CCCN2C(=O)[C@@H](CC2CCCCC2)NCC(=O)O)nn1` [Example 69, HO2 CCH2 -D-Cha-Pro-3-NHCH2 -6-amidinopyridazine.HCl] are 110 ng/mL, 5. ng/mL and 220 ng/mL.
In the same order, the values of `N=C(N)c1ccc(CNC(=O)[C@@H]2CCCN2C(=O)[C@@H](CC2CCCCC2)NCC(=O)O)nc1` [Example 66, HO2 CCH2 -D-Cha-Pro-2-NHCH2 -5-amidinopyridine.HCl] are 180 ng/mL, 7.9 ng/mL and 270 ng/mL.
In the case of `N=C(N)c1ccc(CCCNC(=O)[C@@H]2CCCN2C(=O)[C@@H]2NCC[C@@H]3CCCC[C@@H]32)cc1` [Example 32, 1-Piq-Pro-p-NHCH2 CH2 CH2 -C6 H4 C(=NH)NH2.HCl], in the test with Human plasma [1], the “2x Clotting time APTT” value is 28,500 ng/mL. Further, the “2x Clotting time TT” value in the test with Human plasma [2] was 3,100 ng/mL. Besides, the “2x Clotting time PT” value in the test with Human plasma [3] is recorded as 47,800 ng/mL. For the same compound, the “Kass t-PA” value at t-PA is on record as 0.01 × 10^6 (L/mole).
`O=C(O)CN[C@H](CC1CCCCC1)C(=O)N1CCC[C@H]1C(=O)NCC1CCNCC1` [Example 53, HO2 CCH2 -D-Cha-Pro-4-NHCH2 -piperidine.HCl]: the “2x Clotting time APTT” value in the test on Human plasma [1] is on record as 33,800 ng/mL. Also, the “2x Clotting time TT” value in the test with Human plasma [2] was 1,400 ng/mL. In addition, the “2x Clotting time PT” value in the test with Human plasma [3] is 34,500 ng/mL.
Consider `N=C(N)C1=CNC(CNC(=O)[C@@H]2CCCN2C(=O)[C@@H](CC2CCCCC2)NCC(=O)O)CC1` (stereo partly drawn) [Example 68, HO2 CCH2 -D-Cha-Pro-2-NHCH2 -5-amidino-5,6-dehydro-piperidine.HCl], for which, in the test on Human plasma [1], the “2x Clotting time APTT” value worked out at 49 ng/mL. Moreover, the “2x Clotting time TT” value in the test on Human plasma [2] is recorded as 4. ng/mL. Moreover, the “2x Clotting time PT” value in the test with Human plasma [3] worked out at 190 ng/mL.
On the same counts, the results for `CCC(CC)C(=O)N[C@@H](CCS(C)(=O)=O)C(=O)N1CCC[C@H]1C(=O)NCc1ccc(C(=N)N)cc1` [Example 91, (C2 H5)2 CHCO-Met(O2)-Pro-p-NHCH2 C6 H4 C(NH)NH2.HCl] are 3,000 ng/mL, 63 ng/mL and 3,500 ng/mL.
